Results on one molecule are retold here after PMC6775102, “Lifespan-increasing drug nordihydroguaiaretic acid inhibits p300 and activates autophagy” (NPJ Aging and Mechanisms of Disease, 2019).

For this assay, the target named is T1, p300 (Homo sapiens, UniProt Q09472).
T1 construct: gene EP300; p300 BHC (bromodomain, catalytic acetyltransferase domain, and C/H3 domain, amino acids 965–1810); also p300 HAT (amino acids 1284–1673)
T1 sequence (Q09472 965-1810): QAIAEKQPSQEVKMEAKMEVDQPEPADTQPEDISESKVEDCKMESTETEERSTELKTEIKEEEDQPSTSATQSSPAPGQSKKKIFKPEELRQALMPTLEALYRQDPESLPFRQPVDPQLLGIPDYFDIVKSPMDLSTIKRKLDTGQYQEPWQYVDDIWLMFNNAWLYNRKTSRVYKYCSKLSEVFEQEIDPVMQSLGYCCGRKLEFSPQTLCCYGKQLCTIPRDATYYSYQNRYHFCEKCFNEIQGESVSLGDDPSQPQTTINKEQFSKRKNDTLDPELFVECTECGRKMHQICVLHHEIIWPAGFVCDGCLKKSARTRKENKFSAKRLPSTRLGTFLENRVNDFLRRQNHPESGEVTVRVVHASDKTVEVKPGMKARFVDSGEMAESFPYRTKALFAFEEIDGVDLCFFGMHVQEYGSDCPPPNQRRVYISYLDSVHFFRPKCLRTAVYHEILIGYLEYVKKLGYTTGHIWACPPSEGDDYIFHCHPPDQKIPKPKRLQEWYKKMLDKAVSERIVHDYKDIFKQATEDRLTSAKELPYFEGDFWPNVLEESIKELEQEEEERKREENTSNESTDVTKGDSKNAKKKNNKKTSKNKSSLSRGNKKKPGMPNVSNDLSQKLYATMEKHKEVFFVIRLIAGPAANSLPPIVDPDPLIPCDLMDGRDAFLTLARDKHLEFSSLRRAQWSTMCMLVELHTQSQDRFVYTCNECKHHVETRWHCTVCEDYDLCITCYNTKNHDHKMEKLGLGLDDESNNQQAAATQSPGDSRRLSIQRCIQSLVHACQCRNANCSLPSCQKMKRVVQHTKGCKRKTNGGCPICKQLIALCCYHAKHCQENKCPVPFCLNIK
Nature of the assay: fluorimetric acetyltransferase assay with recombinant p300 BHC and H3 peptide; second assay with p300 HAT; supported by CETSA of p300 HAT in HEK293T cells (+[…] °C). It counts as biochemical.

For the molecule `CC(Cc1ccc(O)c(O)c1)C(C)Cc1ccc(O)c(O)c1` (stereo not shown) [nordihydroguaiaretic acid], the IC50 came out at 10.3 µM.
